Assay results: US20250092419A1, “SYNTHETIC TARGETERS OF UBIQUITINATION AND DEGRADATION (STUDS) AS EFFECTORS FOR FEEDBACK CONTROL IN MAMMALIAN CELLS” (The Regents of the University of California, priority 2022, published 2025)
Each block holds one compound with its values, some of them ahead of it. Where a SMILES comes first, the peptide text is derived from it. The star is where a group is joined. Cbz = O=C(OCc1ccccc1)*

What was measured:
[1] = system: proteasomal and lysosomal degradation pathways; experiment: Inhibitor assays: rescue of GFP fluorescence in Jurkat T cells expressing STUD and GFP target; type: cell-based; details: 5 μM MG-132, 1 μM MLN4924 or 100 nM Bafilomycin A1; 37 C for 5 hours; cells expressing functional STUD and GFP target
Protocol: 72 hours after removal of lentivirus, the Jurkat T cells and an untransduced control cell line were treated with either 5 μM of the proteasomal inhibitor MG-132, 1 μM of the cullin ring ligase inhibitor MLN4924, 100 nM of the lysosomal inhibitor Bafilomycin A1, or DMSO vehicle control and incubate at 37 C for 5 hours. Using flow cytometry to measure GFP fluorescence following treatment, it was observed that GFP fluorescence can indeed be rescued with MG-132 and MLN4924 when cells express both a functional STUD and a GFP target relative to DMSO vehicle control.
Inhibitor Assays: 100,000 cells were plated in a 96 well round bottom plate with either 5 μM MG-132 (Sigma-Aldrich #M7449-200UL), 1 μM MLN4924 (Active Biochem #A-1139), 100 nM Bafilomycin A1 (Enzo Life Sciences #BML-CM110-0100), or DMSO vehicle control and incubated at 37 C for 5 hours. After incubation, cells were pelleted by centrifugation at 400×g for 4 minutes. Supernatant was then removed and cells were washed once with 200 μL PBS. Cells were pelleted again (400×g for 4 minutes) and resuspended in flow buffer (PBS+2% FBS) for assay by flow cytometry.

[2] = system: proteasome; experiment: MG132 proteasome inhibitor treatment of primary human CD4+ T cells expressing GFP nanobody STUD; type: cell-based; details: 5 uM MG132, three hours; cells expressing functional nanobody STUD (nanobody(K->R)+Bonger) only
Protocol: The mechanism of how the STUD reduces GFP was explored. Primary human CD4+ T cells expressing the GFP nanobody STUD were fed with the MG132 proteasome inhibitor and the change in fluorescence was measured over time. Cells expressing a functional STUD should display an increase in fluorescence over time as the proteasome inhibitor took effect.
Using proteasome inhibitor to explore cytosolic GFP mechanism: To ascertain the mechanism by which the STUD degrades cytosolic GFP, the cells were inoculated with 5 uM of the proteasome inhibitor MG132 for 1 and 3 hours. Cells were then washed with PBS and analyzed by flow cytometry. Using the same 2-plasmid system as described above, changes in GFP fluorescence relative to controls were measured.

[3] = system: cullin ring ligase; experiment: MLN4924 rescue of STUD knockdown of CD19BBz CAR expression in CD8+ primary T cells; type: cell-based, human; details: 1 μM MLN4924 for 5 hours at 37 C; CD19BBz CAR with STUD
[4] = system: NALM6 target cells; experiment: MLN dose response: ON switch CAR, lysis of NALM6 target cells by CD8+ primary human T cells; type: cell-based; details: MLN4924 1 μM to 0.015625 μM; 72 hours at 37 C; antiCD19BBz CAR fused to SynZip plus memSTUD
Protocol: CD8+ primary human T cells were engineered with an antiCD19BBz CAR fused to a SynZip and a memSTUD that binds the SynZip using the same plasmids outlined in FIG. 14A by lentiviral transduction. As a control, CD8+ primary human T cells were lentivirally transduced with an antiCD19BBz and a SynZip memSTUD which cannot bind the CAR. These engineered cells and an untransduced control were cocultured with NALM6 target cells for 72 hours at 37 C in the presence of MLN4924 ranging from 1 μM to 0.015625 μM and a DMSO vehicle control. After coculture, target cell lysis was assayed by flow cytometry. Specific target cell lysis of each cell line relative to NALM6 cells cultured alone in the same conditions was then calculated.
Co-culture assays: For all assays, T cells and target cells were co-cultured at a 1:1 ratio with cell numbers varying per assay. All assays contained between 10,000 and 50,000 of each cell type. The Countess II Cell Counter (ThermoFisher) was used to determine cell counts for all assays set up. T cells and target cells were mixed in 96-well round bottom tissue culture plates in 200 μL T cell media, and then plates were centrifuged for 1 min at 400×g to initiate interaction of the cells prior to incubation at 37 C.
MLN dose response: 25,000 CD8+ primary human T cells were seeded into 96 well round bottom plates in 100 μL fresh media. […]

[5] = system: CAR-SZ17 fusion; experiment: Degradation of CAR-SZ17 fusion in Jurkat cells; type: cell-based; details: degron directly fused to the CAR
Protocol: The ability of the STUD to degrade a CAR in Jurkat cells was tested by generating a CAR construct with SynZIP17 fused to its C-terminus. However, while these STUDs worked to some extent, none of them were able to completely knockdown CAR expression (see FIG. 8).

[6] = target: GFP-SZ17 [GFP: P42212]; experiment: cell-based or functional assay

Compound: CO/C1=C\C(C)=C\[C@@H](C)[C@@H](O)[C@@H](C)C/C(C)=C/C=C/[C@H](OC)[C@@H]([C@@H](C)[C@@H](O)[C@H](C)[C@@]2(O)C[C@@H](O)[C@H](C)[C@@H](C(C)C)O2)OC1=O [Bafilomycin A1]
GFP fluorescence relative to DMSO vehicle control [1]: No changes to GFP fluorescence

Compound: CC(C)C[C@@H](C=O)NC(=O)[C@H](CC(C)C)NC(=O)[C@H](CC(C)C)NC(=O)OCc1ccccc1 [MG-132] (Cbz-Leu-Leu-Leu-aldehyde)
change in GFP fluorescence over time [2]: increase in GFP fluorescence
GFP fluorescence relative to DMSO vehicle control [1]: rescued

Compound: NS(=O)(=O)OC[C@@H]1C[C@@H](n2ccc3c(N[C@H]4CCc5ccccc54)ncnc32)C[C@@H]1O [MLN4924]
GFP fluorescence relative to DMSO vehicle control [1]: rescued
CAR expression (CAR fluorescence by antibody stain) [3]: rescue STUD knockdown of CAR expression
specific target cell lysis [4]: dose dependent

Compound: Arg-Arg-Arg-Gly (RRRG) [Bonger degron]
reduction of CAR expression [5]: over 90%

median normalized GFP fluorescence (flow cytometry, Jurkat T cells), fold change [6]: 42 fold
Compound: SynZIP18(K->R)-5xGS-RRRG (designed binder)
